The supplement of paper PMC10307832

How the values were obtained:
Assay in all cases: relative viability (nuclei count vs DMSO), 5 days (fraction); higher = more cells survive
[1] = test system: NCI-H1651
Procedure, shortened: (§1)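 Lung cancer cell lines were seeded in 1536-well plates and dosed by pin tool the next day, with either a single drug or a fixed anchor-drug dose combined with five library-drug doses (not always all listed) spaced in √10 steps. Five days later, one step fixed the cells and stained their nuclei (final 0.05% Triton X-100, 1% formaldehyde, 1 ug/ml Hoechst), and nuclei were counted on 4× images. Relative viability is the nuclei count in treated wells divided by the count in vehicle wells, and each value is the median of duplicate plates.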

[2] = test system: NCI-H2023
Procedure, shortened: as §1

[3] = test system: LCLC-97TM1
Procedure, shortened: as §1

[4] = test system: BEN
Procedure, shortened: as §1

[5] = test system: NCI-H650
Procedure, shortened: as §1

[6] = test system: NCI-H1915
Procedure, shortened: as §1

[7] = test system: A-427
Procedure, shortened: as §1

[8] = test system: NCI-H596
Procedure, shortened: as §1

[9] = test system: NCI-H460
Procedure, shortened: as §1

[10] = test system: NCI-H1650
Procedure, shortened: as §1

[11] = test system: PC-3 [JPC-3]
Procedure, shortened: as §1

[12] = test system: NCI-H661
Procedure, shortened: as §1

[13] = test system: CAL-12T
Procedure, shortened: as §1

[14] = test system: ABC-1
Procedure, shortened: as §1

[15] = test system: NCI-H441
Procedure, shortened: as §1

[16] = test system: 201T
Procedure, shortened: as §1

[17] = test system: H3255
Procedure, shortened: as §1

[18] = test system: NCI-H727
Procedure, shortened: as §1

[19] = test system: LC-2-ad
Procedure, shortened: as §1

[20] = test system: NCI-H520
Procedure, shortened: as §1

[21] = test system: NCI-H2087
Procedure, shortened: as §1

Compound COc1cc2nccc(Oc3ccc(NC(=O)Nc4cc(C)on4)c(Cl)c3)c2cc1OC [Tivozanib] + CC(C)C[C@H](NC(=O)[C@H](Cc1ccccc1)NC(=O)c1cnccn1)B(O)O [Bortezomib] (partner 0.002 µM) has a relative viability ([1]; first compound 0.005 µM) of 0.895, a relative viability ([1]; first compound 0.01581 µM) of 0.985 and a relative viability ([1]; first compound 0.05 µM) of 1.02. The relative viability ([1]; first compound 0.1581 µM) was 0.865, the relative viability ([1]; first compound 0.5 µM) was 0.986 and the relative viability ([2]; first compound 0.005 µM) was 0.909. It also gave a relative viability ([2]; first compound 0.01581 µM) of 1.07, a relative viability ([2]; first compound 0.05 µM) of 1 and a relative viability ([2]; first compound 0.1581 µM) of 0.853. The relative viability ([2]; first compound 0.5 µM) was 0.965, the relative viability ([3]; first compound 0.005 µM) was 0.533 and the relative viability ([3]; first compound 0.01581 µM) was 0.584. For the same compound, the relative viability ([3]; first compound 0.05 µM) was 0.913, the relative viability ([3]; first compound 0.1581 µM) was 0.603 and the relative viability ([3]; first compound 0.5 µM) was 1. It also gave a relative viability ([4]; first compound 0.005 µM) of 0.703, a relative viability ([4]; first compound 0.01581 µM) of 0.847 and a relative viability ([4]; first compound 0.05 µM) of 0.873. The relative viability ([4]; first compound 0.5 µM) was 0.86, the relative viability ([5]; first compound 0.005 µM) was 0.447 and the relative viability ([5]; first compound 0.01581 µM) was 0.956. The relative viability ([5]; first compound 0.05 µM) was 0.833, the relative viability ([5]; first compound 0.1581 µM) was 0.579 and the relative viability ([5]; first compound 0.5 µM) was 0.497. It also gave a relative viability ([6]; first compound 0.005 µM) of 0.945, a relative viability ([6]; first compound 0.01581 µM) of 0.986 and a relative viability ([6]; first compound 0.05 µM) of 0.952. For the same compound, the relative viability ([6]; first compound 0.1581 µM) was 0.921, the relative viability ([6]; first compound 0.5 µM) was 0.884 and the relative viability ([7]; first compound 0.005 µM) was 0.988. The relative viability ([7]; first compound 0.01581 µM) was 1.03, the relative viability ([7]; first compound 0.05 µM) was 0.962 and the relative viability ([7]; first compound 0.1581 µM) was 0.893. For the same compound, the relative viability ([7]; first compound 0.5 µM) was 0.932, the relative viability ([8]; first compound 0.005 µM) was 1.03 and the relative viability ([8]; first compound 0.01581 µM) was 0.887. It also gave a relative viability ([8]; first compound 0.05 µM) of 0.918, a relative viability ([8]; first compound 0.1581 µM) of 0.993 and a relative viability ([8]; first compound 0.5 µM) of 1.08. It also gave a relative viability ([9]; first compound 0.005 µM) of 1.13, a relative viability ([9]; first compound 0.01581 µM) of 1.04 and a relative viability ([9]; first compound 0.05 µM) of 1. For the same compound, the relative viability ([9]; first compound 0.1581 µM) was 1.12, the relative viability ([9]; first compound 0.5 µM) was 1.03 and the relative viability ([10]; first compound 0.005 µM) was 0.195. The relative viability ([10]; first compound 0.01581 µM) was 0.21, the relative viability ([10]; first compound 0.05 µM) was 0.209 and the relative viability ([10]; first compound 0.1581 µM) was 0.264. For the same compound, the relative viability ([10]; first compound 0.5 µM) was 0.196, the relative viability ([11]; first compound 0.005 µM) was 0.82 and the relative viability ([11]; first compound 0.01581 µM) was 0.855. The relative viability ([11]; first compound 0.05 µM) was 0.847, the relative viability ([11]; first compound 0.1581 µM) was 0.835 and the relative viability ([11]; first compound 0.5 µM) was 0.794. For the same compound, the relative viability ([12]; first compound 0.005 µM) was 0.682, the relative viability ([12]; first compound 0.01581 µM) was 0.818 and the relative viability ([12]; first compound 0.05 µM) was 0.753. The relative viability ([12]; first compound 0.1581 µM) was 0.717, the relative viability ([12]; first compound 0.5 µM) was 0.85 and the relative viability ([13]; first compound 0.005 µM) was 0.86. For the same compound, the relative viability ([13]; first compound 0.01581 µM) was 0.967, the relative viability ([13]; first compound 0.05 µM) was 1.14 and the relative viability ([13]; first compound 0.5 µM) was 1.03. The relative viability ([14]; first compound 0.005 µM) was 0.315, the relative viability ([14]; first compound 0.01581 µM) was 0.3 and the relative viability ([14]; first compound 0.05 µM) was 0.277. The relative viability ([14]; first compound 0.1581 µM) was 0.304, the relative viability ([14]; first compound 0.5 µM) was 0.288 and the relative viability ([15]; first compound 0.005 µM) was 0.43. For the same compound, the relative viability ([15]; first compound 0.01581 µM) was 0.332, the relative viability ([15]; first compound 0.05 µM) was 0.332 and the relative viability ([15]; first compound 0.1581 µM) was 0.453. The relative viability ([15]; first compound 0.5 µM) was 0.34, the relative viability ([16]; first compound 0.005 µM) was 1.11 and the relative viability ([16]; first compound 0.01581 µM) was 1.08. The relative viability ([16]; first compound 0.05 µM) was 1.06, the relative viability ([16]; first compound 0.1581 µM) was 1.07 and the relative viability ([16]; first compound 0.5 µM) was 1.11. The relative viability ([17]; first compound 0.005 µM) was 0.739, the relative viability ([17]; first compound 0.01581 µM) was 0.823 and the relative viability ([17]; first compound 0.05 µM) was 0.795. For the same compound, the relative viability ([17]; first compound 0.1581 µM) was 0.582, the relative viability ([17]; first compound 0.5 µM) was 0.697 and the relative viability ([18]; first compound 0.005 µM) was 0.701. It also gave a relative viability ([18]; first compound 0.01581 µM) of 0.818, a relative viability ([18]; first compound 0.05 µM) of 0.772 and a relative viability ([18]; first compound 0.5 µM) of 0.873. The relative viability ([19]; first compound 0.005 µM) was 0.951, the relative viability ([19]; first compound 0.01581 µM) was 1.04 and the relative viability ([19]; first compound 0.05 µM) was 0.971. It also gave a relative viability ([19]; first compound 0.1581 µM) of 0.867, a relative viability ([19]; first compound 0.5 µM) of 0.843 and a relative viability ([20]; first compound 0.005 µM) of 0.575. For the same compound, the relative viability ([20]; first compound 0.01581 µM) was 0.693, the relative viability ([20]; first compound 0.05 µM) was 0.645 and the relative viability ([20]; first compound 0.1581 µM) was 0.519. The relative viability ([20]; first compound 0.5 µM) was 0.605, the relative viability ([21]; first compound 0.005 µM) was 0.644 and the relative viability ([21]; first compound 0.01581 µM) was 0.919. For the same compound, the relative viability ([21]; first compound 0.05 µM) was 0.842, the relative viability ([21]; first compound 0.1581 µM) was 0.77 and the relative viability ([21]; first compound 0.5 µM) was 0.739.
